Assay results published in paper PMC11901438, “Synthesis and Evaluation of Boron-Containing Heterocyclic Compounds with Antimicrobial and Anticancer Activities” (Molecules, 2025).
pIC50: −log10 of the molar value. Values after ≈ are worked out from the molar mass of the structure shown.

Key:
[1] = tested on: M. tuberculosis H37RV ATCC 27294 strain; experiment: Resazurin microtiter assay (REMA), MIC90; type: cell-based; conditions: Mycobacterium tuberculosis, cut-off 25 µM
[2] = tested on: T. rubrum ATCC 28189; experiment: Antifungal susceptibility test (CLSI M38-A2 microdilution, resazurin), MIC90; conditions: Trichophyton rubrum, ATCC28189, read-out: T. rubrum ATCC 28189 MIC90
[3] = tested on: NOK-si cells; experiment: MTT cytotoxicity assay in normal oral keratinocytes NOK-si; type: cell-based; conditions: Keratinocyte, 24 h, read-out: NOK-si IC50
Description: (§1) Boronic acid and benzoboroxole derivatives have been identified as potential anticancer agents. To investigate their efficacy against head and neck cancer cell lines, SCC-25 cells were utilized in this study, as a model for oral squamous cell carcinoma. Additionally, cytotoxicity was performed in normal oral keratinocytes NOK-si cells to evaluate the selective index of the compounds. […] The selectivity of the compounds is quantified by the selectivity index (SI), with those with an SI greater than 3.0 being considered promising for further evaluation, in accordance with internal protocols.
(§2) The SCC-25 was purchased from Rio de Janeiro Cell Bank, and NOK-si was kindly provided by Prof. Carlos Rossa from the School of Dentistry—UNESP. The cell lines were initially thawed and cultured in 25 cm^2 cell culture flasks. Cell growth was monitored using a microscope, and the culture medium was changed periodically. Upon reaching confluency, cell dissociation was achieved by adding 5 mL of trypsin (Sigma-Aldrich, St Louis, MO, USA) and incubating the bottles in a CO2 incubator for 10 min. Subsequently, the cells were transferred to 15 mL Falcon tubes and centrifuged at 2000 rpm for 10 min. Cell counting was performed using a Countess II FL automated cell counter (ThermoFischer, Waltham, MA, USA). The cells were seeded at a density of 30,000 cells per well in 96-well plates. The plates were then incubated at 37 °C in 5% CO2 for 24 h. Following this, test compounds were incubated for another 24 h at 10 different concentrations: 50, 25, 12.5, 6.25, 3.12, 1.56, 0.78, 0.39, 0.19, and 0.097 µg/mL. After the specified time, MTT reagent (3 mg/mL) (Sigma-Aldrich, St Louis, MO, USA) dissolved in phenol-free RPMI 1640 was added and incubated for 4 h. The formed MTT crystals were solubilized using 2-propanol P.A (Sigma-Aldrich, St Louis, MO, USA) with agitation. Absorbance was read at 562 nm using an EZ Read 400 microplate reader (Biochrom, Cambridge, UK) and ADAP 2.0 Biochrom software (version 2.0). IC50 values and graphs were calculated by Dr. Paula Aboud Barbugli using Excel and Prism software (version 10.4.1). The MTT assay results were evaluated for normality using the Shapiro–Wilk test, followed by one-way ANOVA with Tukey’s post hoc test at a significance level of 5%.

[4] = tested on: SCC-25 cells; experiment: MTT anticancer assay in SCC-25 cells; type: cell-based; conditions: for pIC50: MTT, 24 h; for SI (selectivity index): NOK-si versus SCC-25
Description: as §1, §2

[5] = tested on: T. mentagrophytes (ATCC 11481); experiment: Antifungal susceptibility test (CLSI M38-A2 microdilution, resazurin), MIC90; conditions: Trichophyton mentagrophytes, ATCC11481|ATCC28189, read-out: T. mentagrophytes ATCC 28189 MIC90
[6] = tested on: HaCaT cell line; experiment: Resazurin cytotoxicity assay using HaCaT cells; type: cell-based, human; conditions: compared to the benzoboroxole derivatives 44 and 45
Description: For the cytotoxicity assay, the HaCaT cell line, which is characterized as immortalized normal human keratinocytes, was used.
For the cytotoxicity assay, the HaCat cell line, characterized as immortalized normal human keratinocytes, was used. The cells were maintained in (DMEM) supplemented with 10% of bovine fetal serum (BFS) (Sigma-Aldrich, St Louis, MO, USA) in cell culture bottles with 5% CO2 at 37 °C. After a confluence of 75%, the cells were treated with trypsin + EDTA 0.25%, centrifugated at 1500 rpm for 10 min, and 5 × 10^4 cells/well were seeded in 96-well plates for incubation for 24 h for cell adhesion before treatment. After adhesion, the cells were treated with 100 µL of the compounds 34 and 40, with fungi activity in concentrations between 3.90 and 125 µg/mL. Regarding the controls, DMSO in the concentration range of (1–4%) was used as a positive control for cytotoxicity; the beyond negative control comprised HaCaT cells only in DMEM medium (Sigma-Aldrich, St Louis, MO, USA). After 24 h of treatment, 30 µL of resazurin 50 µM was added to each well for 4 h, and the plates were read at 560 and 600 nm using microplate reader BioTek (Agilent, Santa Clara, CA, USA), Gen 5 software (version 2.09). The […] (IC50) for each compound was determined based on resazurin reduction. Three independent assays were performed.

[7] = tested on: M. tuberculosis H37Rv strains; conditions: cited from earlier work
[8] = target: leucyl-tRNA synthetase (LeuRS); design: method as in PMID 28953378, PMID 38365949; conditions: cited from earlier work

Structure (SMILES)	MIC90 [1] [µM]	MIC90 [2] [µM]	CC50 [3] [µM]	pIC50 ([4]; Homo sapiens, SCC-25, 24 h)	SI (selectivity index) [4]	MIC90 [5] [µM]	cytotoxic effects in HaCaT cells (comparison in words) [6]	pIC50 [4]	killing effect in SCC-25 cells [4]	MIC90 [7] [µM]	MIC against M. tuberculosis H37Rv strains [7] [µM]	pIC50 [8]
O=C(Nc1ccc(N2CCN(c3ccc(F)cc3)CC2)c(F)c1)c1ccc(B(O)O)cc1 [Compound 37, [4-({3-Fluoro-4-[4-(4-fluorophenyl)piperazin-1-yl]phenyl}carbamoyl)phenyl]boronic acid]	> 25	286 (≈ 125 µg/mL)	123	4.10	1.55	286 (≈ 125 µg/mL)						
O=C(Nc1ccc(N2CCCCCC2)c(F)c1)c1ccc(B(O)O)cc1 [Compound 40, (4-{[4-(Azepan-1-yl)-3-fluorophenyl]carbamoyl}phenyl)boronic acid]	> 25	88 (≈ 31.3 µg/mL)	127	4.07	1.49	42 (≈ 15 µg/mL)	higher cytotoxic effects					
O=C(Nc1ccc(N2CCN(c3ccccn3)CC2)c(F)c1)c1cccc(B(O)O)c1 [Compound 29, {3-({3-Fluoro-4-[4-(pyridin-2-yl)piperazin-1-yl]phenyl}carbamoyl)phenyl}boronic acid]	> 25	297 (≈ 125 µg/mL)	110	4.10	<1	297 (≈ 125 µg/mL)		3.93				
O=C(Nc1ccc(N2CCOCC2)c(F)c1)c1cccc(B(O)O)c1 [Compound 33, {3-[(3-Fluoro-4-morpholinophenyl)carbamoyl]phenyl}boronic acid]	> 25	363 (≈ 125 µg/mL)			<1	363 (≈ 125 µg/mL)						
O=C(Nc1ccc(N2CCN(c3ccccn3)CC2)c(F)c1)c1ccc2c(c1)COB2O [Compound 44, N-{3-fluoro-4-[4-(pyridin-2-yl)piperazin-1-yl]phenyl}-1-hydroxy-1,3-dihydrobenzo[c][1,2]oxaborole-5-carboxamide]	> 25	289 (≈ 125 µg/mL)			<1	146 (≈ 63.1 µg/mL)			absent killing effect			
O=C(Nc1ccc(N2CCN(c3ncccn3)CC2)c(F)c1)c1ccc(B(O)O)cc1 [Compound 36, [4-({3-Fluoro-4-[4-(pyrimidin-2-yl)piperazin-1-yl]phenyl}carbamoyl)phenyl]boronic acid]	> 25	297 (≈ 125 µg/mL)	134	3.87	1.00	297 (≈ 125 µg/mL)						
O=C(Nc1ccc(N2CCSCC2)c(F)c1)c1cccc(B(O)O)c1 [Compound 32, {3-[(3-Fluoro-4-thiomorpholinophenyl)carbamoyl]phenyl}boronic acid]	> 25	347 (≈ 125 µg/mL)			<1	347 (≈ 125 µg/mL)						
O=C(Nc1ccc(N2CCOCC2)c(F)c1)c1ccc(B(O)O)cc1 [Compound 39, {4-[(3-Fluoro-4-morpholinophenyl)carbamoyl]phenyl}boronic acid]	> 25	363 (≈ 125 µg/mL)	77.1	4.13	1.04	363 (≈ 125 µg/mL)						
O=C(Nc1ccc(N2CCCCCC2)c(F)c1)c1cccc(B(O)O)c1 [Compound 34, (3-{[4-(Azepan-1-yl)-3-fluorophenyl]carbamoyl}phenyl)boronic acid]	> 25	42 (≈ 15 µg/mL)	129	4.17	1.91	21 (≈ 7.48 µg/mL)	higher cytotoxic effects					
O=C(Nc1ccc(N2CCN(c3ccc(F)cc3)CC2)c(F)c1)c1cccc(B(O)O)c1 [Compound 31, [3-({3-Fluoro-4-[4-(4-fluorophenyl)piperazin-1-yl]phenyl}carbamoyl)phenyl]boronic acid]	> 25	286 (≈ 125 µg/mL)	> 221	4.23	3.73	286 (≈ 125 µg/mL)						
O=C(Nc1ccc(N2CCN(c3ccccn3)CC2)c(F)c1)c1ccc(B(O)O)cc1 [Compound 35, [4-({3-Fluoro-4-[4-(pyridin-2-yl)piperazin-1-yl]phenyl}carbamoyl)phenyl]boronic acid]	> 25	297 (≈ 125 µg/mL)	221	4.35	3.37	297 (≈ 125 µg/mL)		4.34				
NNC(=O)c1ccncc1 [Isoniazide, reference compound]	0.11 (≈ 0.0151 µg/mL)											
O=c1[nH]cc(F)c(=O)[nH]1 [5-fluorouracil, reference compound]				2.74								
CN(C/C=C/C#CC(C)(C)C)Cc1cccc2ccccc12 [Terbinafine, reference compound]		0.0001 (≈ 2.91e-05 µg/mL)				2.5e-05 (≈ 7.29e-06 µg/mL)						
NC[C@H]1OB(O)c2c(OCCO)ccc(Cl)c21 [ganfeborole, (S)-3-(aminomethyl)-4-chloro-7-(2-hydroxyethoxy)benzo[c][1,2]oxaborol-1(3H)-ol]										0.08 (≈ 0.0206 µg/mL)	0.08 (≈ 0.0206 µg/mL)	6.70
O=C(Nc1ccc(N2CCSCC2)c(F)c1)c1ccc2c(c1)COB2O [Compound 45, N-(3-fluoro-4-thiomorpholinophenyl)-1-hydroxy-1,3-dihydrobenzo[c][1,2]oxaborole-5-carboxamide]	> 25	336 (≈ 125 µg/mL)	65.8	4.08	<1	336 (≈ 125 µg/mL)						
O=C(Nc1ccc(N2CCSCC2)c(F)c1)c1ccc(B(O)O)cc1 [Compound 38, {4-[(3-Fluoro-4-thiomorpholinophenyl)carbamoyl]phenyl}boronic acid]	> 25	347 (≈ 125 µg/mL)	149		<1	347 (≈ 125 µg/mL)						
O=C(Nc1ccc(N2CCN(c3ncccn3)CC2)c(F)c1)c1cccc(B(O)O)c1 [Compound 30, [3-({3-Fluoro-4-[4-(pyrimidin-2-yl)piperazin-1-yl]phenyl}carbamoyl)phenyl]boronic acid]	> 25	297 (≈ 125 µg/mL)			<1	297 (≈ 125 µg/mL)						
